Laboratory results published in publication PMC12064818, “A general assay platform to study protein pharmacology using ligand-dependent structural dynamics” (Nature Communications, 2025).

Target: T1, FLuc-C-HiBiT (Photinus pyralis, UniProt P08659)
T1 construct: firefly luciferase with C-terminal HiBiT tag, E. coli expressed
Test: biochemical
Details: enzyme activity, 10 uM ATP; read-out: IC50 or SDR50 (mM) / FLuc E

T1 sequence (P08659 whole entry, looked up): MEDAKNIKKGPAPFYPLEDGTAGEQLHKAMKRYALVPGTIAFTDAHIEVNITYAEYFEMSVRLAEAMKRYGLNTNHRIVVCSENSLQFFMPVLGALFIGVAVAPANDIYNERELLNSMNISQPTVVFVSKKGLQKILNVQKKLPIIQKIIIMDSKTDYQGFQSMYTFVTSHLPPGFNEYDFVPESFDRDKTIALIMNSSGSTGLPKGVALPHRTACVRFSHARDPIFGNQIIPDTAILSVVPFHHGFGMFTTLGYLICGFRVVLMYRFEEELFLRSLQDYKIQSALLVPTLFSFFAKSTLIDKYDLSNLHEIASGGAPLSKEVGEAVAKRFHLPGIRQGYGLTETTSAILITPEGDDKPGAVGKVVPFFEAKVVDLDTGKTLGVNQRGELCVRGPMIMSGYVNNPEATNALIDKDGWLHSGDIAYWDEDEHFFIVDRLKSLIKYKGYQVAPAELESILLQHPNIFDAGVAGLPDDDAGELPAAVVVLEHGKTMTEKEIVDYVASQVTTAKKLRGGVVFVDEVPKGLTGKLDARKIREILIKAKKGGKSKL

| IC50 | Compound |
| --- | --- |
| > 0.03 mM | O=C(O)C1CN(Cc2ccc(-c3nc4cc(Cc5ccccc5F)ccc4s3)c(F)c2)C1 [NCGC00379113-01] |
| 0.00248 mM | Cc1cc(-c2nc3cc(F)ccc3s2)ccc1NC(=O)[C@@H](N)CCCCN [NCGC00379246-02] |
| 0.00881 mM | CC(C)(Oc1ccc(-c2nc3cc(Cl)ccc3s2)cc1)C(=O)O [NCGC00386771-01] |
| 0.00442 mM | Cc1ccc2nc(-c3ccc4nc(-c5ccc(NC(=O)c6cccc(Cl)c6)cc5)sc4c3)sc2c1[S+](=O)([O-])O [NCGC00386846-01] |
| 0.0124 mM | O=C(Nc1ccc([C@H]2OCC(=O)N(C3CCOCC3)[C@@H]2CO)cc1)c1ccc(C(F)(F)F)cc1 [NCGC00391115-01] |
| 0.0143 mM | Fc1ccc2[nH]c([C@H]3CCN(Cc4ccccc4F)C3)nc2c1 [NCGC00391187-01] |
| 0.018 mM | Cc1ccccc1CN1CC[C@H](c2nc3ccccc3s2)C1 [NCGC00391192-01] |
| 0.0111 mM | CC(C)c1ccc(N2C(=S)N[C@H]3[C@@H](O)[C@H](O)C[C@@H](C(=O)N(C)Cc4ccccc4)[C@H]32)cc1 [NCGC00391233-01] |
| 0.0111 mM | CSCC(=O)N[C@H]1CCN2C(=O)c3cc(-c4ccc(SC)cc4)ccc3NC(=O)[C@H]12 [NCGC00391740-01] |
| 0.0124 mM | COc1ccc(/C=C/c2ccc3c(c2)C(=O)N2CC[C@H](NC(=O)CCC(=O)O)[C@H]2C(=O)N3)cc1 [NCGC00391742-01] |
| 0.00989 mM | O=C(NC[C@H]1Cn2cc(-c3ccc4c(c3)OCCCO4)nc2CO1)c1ccc2c(c1)OCO2 [NCGC00392108-01] |
| 0.0202 mM | O=C1N(c2ccccc2)C[C@H]2CN(Cc3ccccc3)CCN12 [NCGC00393129-01] |
| 0.0124 mM | CSc1ccc(-c2ccc3c(c2)C(=O)N2CC[C@H](NC(=O)c4cccs4)[C@H]2C(=O)N3)cc1 [NCGC00393756-01] |
| > 0.03 mM | CN(C)c1ccc(-c2noc([C@@H]3CCCN3Cc3cnc4ccccc4c3)n2)cn1 [NCGC00394599-01] |
| 0.0202 mM | Cc1nn(-c2ccc(C(C)(C)C)cc2)c(C)c1[C@@H]1C=C[C@@H](NC(=O)c2ccco2)C1 [NCGC00394638-01] |
| > 0.03 mM | COc1ccc(CNC(=O)C[C@@H]2C[C@@H](C(C)C)[C@H](CNC(=O)c3cccnc3)C=C2C)cc1 [NCGC00394780-01] |
| > 0.03 mM | CC(C)(C)c1ccc(C(=O)Nc2ccc(C(O)[C@H]3COCC(=O)N3Cc3ccccc3)cc2)cc1 (some centres unmarked) [NCGC00394950-01] |
| 0.0111 mM | O=C(Nc1ccc([C@H]2OCC(=O)N(Cc3ccncc3)[C@@H]2CO)cc1)c1ccc(C(F)(F)F)cc1 [NCGC00395114-01] |
| 0.0124 mM | O=C(O)COCC(=O)N[C@H]1CCN2C(=O)c3cc(/C=C/c4ccccc4)ccc3NC(=O)[C@H]12 [NCGC00395144-01] |
| 0.0124 mM | O=C(Nc1ccc(Cl)cc1)Nc1ccc2n(c1=O)C[C@H]1C[C@@H]2CN(C(=O)c2ccc3ccccc3c2)C1 [NCGC00395236-01] |
| 0.0202 mM | COc1ccc(-c2noc([C@@H]3C[C@H](NCc4ccccn4)CN3C)n2)cc1 [NCGC00395774-01] |
| 0.0255 mM | Cc1ccccc1CN1CC[C@H](c2nc3cc(F)ccc3[nH]2)C1 [NCGC00396601-01] |
| 0.014 mM | Cn1ccnc1CN1C(=O)CO[C@H](c2ccc(NC(=O)Nc3ccccc3)cc2)[C@H]1CO [NCGC00396650-01] |
| 0.0161 mM | CC(C)(C)c1ccc(C(=O)Nc2ccc([C@H]3OCC(=O)N[C@@H]3CO)cc2)cc1 [NCGC00396656-01] |
| 0.0157 mM | COc1ccc(C(=O)Nc2ccc3n(c2=O)C[C@H]2C[C@@H]3CN(C(=O)CCCC(=O)O)C2)cc1 [NCGC00397987-01] |
| 0.007 mM | O=C(Nc1cccc(F)c1)Nc1ccc2n(c1=O)C[C@H]1C[C@@H]2CN(C(=O)c2ccc(F)cc2)C1 [NCGC00398007-01] |

Second part, the compound before the results:

| Compound | IC50 |
| --- | --- |
| COc1ccc(-c2nc3ncccc3[nH]2)cc1 [NCGC00375673-01] | 0.016 mM |
| CCCCNc1nc(N)c2[nH]c(=O)n(Cc3ccc(OCCN(C)C)nc3)c2n1 [NCGC00387452-01] | > 0.03 mM |
| Nc1nc(=O)c2[nH]c(=O)n(C3OC(CO)C(O)C3O)c2[nH]1 (centres unmarked) [NCGC00390457-01] | > 0.03 mM |
| Nc1nc(=O)c2[nH]c(=O)n(C3CC(O)C(CO)O3)c2[nH]1 (centres unmarked) [NCGC00390462-01] | > 0.03 mM |
| COc1cc(-c2nc3ccccc3s2)ccc1O [NCGC00390758-02] | 0.0111 mM |
| Cc1ccc2[nH]c([C@H]3CCN(C(C)C)C3)nc2c1 [NCGC00391182-01] | 0.0254 mM |
| COCC(=O)Nc1nc2c(s1)C[C@]1(C)CC[C@@H]3[C@H](OC(=O)[C@H]3C)[C@H]1[C@@H]2C [NCGC00391224-01] | 0.00161 mM |
| Cc1nn(-c2ccc(C(C)C)cc2)c(C)c1[C@@H]1C=C[C@@H](NC(=S)NCC(C)C)C1 [NCGC00391239-01] | 0.0286 mM |
| C[C@@H]1C(=O)O[C@H]2[C@H]1CC[C@@]1(C)Cc3sc(NC(=O)COCC(=O)O)nc3[C@@H](C)[C@H]21 [NCGC00391314-01] | 0.0057 mM |
| C[C@@H]1C(=O)O[C@H]2[C@H]1CC[C@@]1(C)Cc3sc(NCCc4ccccn4)nc3[C@@H](C)[C@H]21 [NCGC00391315-01] | 0.0161 mM |
| C[C@@H]1C(=O)O[C@H]2[C@H]1CC[C@@]1(C)Cc3sc(NCc4ccccc4)nc3[C@@H](C)[C@H]21 [NCGC00391358-01] | 0.00718 mM |
| COCCNC(=O)[C@@H](C)C1CC[C@@]2(C)Cc3sc(CSc4ccccc4)nc3[C@@H](C)[C@@H]2[C@H]1O (some centres unmarked) [NCGC00391430-01] | 0.0111 mM |
| O=C([C@@H]1C[C@@H](O)[C@H](O)[C@@H]2NC(=S)N(c3ccc(OC(F)(F)F)cc3)[C@@H]21)N1CCCCC1 [NCGC00392138-01] | > 0.03 mM |
| CCNC(=O)N[C@@H]1C=C[C@@H](c2c(C)nn(-c3ccc(F)cc3)c2C)C1 [NCGC00392634-01] | 0.0202 mM |
| c1ccc(-c2cn3c(n2)CO[C@@H](CNCc2cccs2)C3)cc1 [NCGC00393328-01] | 0.0202 mM |
| COc1ccc(CN2CCOC[C@H](OCC(=O)N(C)C)C2)cc1 [NCGC00393502-01] | > 0.03 mM |
| CC1=C[C@@H](CNC(=O)c2ccncc2)[C@H](C(C)C)C[C@H]1CC(=O)N1CCOCC1 [NCGC00394503-01] | > 0.03 mM |
| Cc1ccc(-n2nc(C)c([C@H]3C=C[C@@H](O)C3)c2C)cc1Cl [NCGC00394636-01] | 0.0128 mM |
| Cn1c([C@H]2CCN(C3CCCCC3)C2)nc2ccccc21 [NCGC00394901-01] | 0.0254 mM |
| CC(C)(C)CC(=O)N1C[C@@H]2C[C@H](C1)c1ccc(NC(=O)Nc3cccc(F)c3)c(=O)n1C2 [NCGC00395227-01] | > 0.03 mM |
| CC(C)(CC(=O)O)CC(=O)N1Cc2nc[nH]c2C[C@H]1c1nc(Cc2ccccc2)no1 [NCGC00396501-01] | > 0.03 mM |
| Cc1ccc2oc([C@H]3CCN(Cc4cccs4)C3)nc2c1 [NCGC00397825-01] | 0.018 mM |
| CC(=O)N[C@@H]1C=C[C@@H](c2c(C)nn(-c3ccc(C(C)(C)C)cc3)c2C)C1 [NCGC00397882-01] | 0.018 mM |
| O=C([C@@H]1C[C@@H](O)[C@H](O)[C@@H]2NC(=S)N(c3ccc4c(c3)OCO4)[C@@H]21)N1CCOCC1 [NCGC00397934-01] | 0.0143 mM |
| Cc1ccc2[nH]c([C@H]3CCN(Cc4cccs4)C3)nc2c1 [NCGC00397946-01] | 0.0202 mM |
| CCNC(=O)N[C@@H]1C=C[C@@H](c2c(C)nn(-c3ccc(C(F)(F)F)cc3)c2C)C1 [NCGC00397974-01] | 0.0143 mM |
| O=C(Nc1ccccc1)Nc1ccc2n(c1=O)C[C@H]1C[C@@H]2CN(C(=O)c2ccccc2)C1 [NCGC00397999-01] | 0.018 mM |
